Source: US8299238B2, “Steroidogenesis modified cells and methods for screening for endocrine disrupting chemicals” (University of Saskatchewan, priority 2009, dated 2012)

Columns and labels:
H295R cells [1] = conditions: H295R cells (parental or unmodified); cited from earlier work
aromatase (CYP19) = biological target: T1, aromatase (CYP19) (Homo sapiens, UniProt P11511); conditions: cited from earlier work
T1 sequence (P11511 1-503): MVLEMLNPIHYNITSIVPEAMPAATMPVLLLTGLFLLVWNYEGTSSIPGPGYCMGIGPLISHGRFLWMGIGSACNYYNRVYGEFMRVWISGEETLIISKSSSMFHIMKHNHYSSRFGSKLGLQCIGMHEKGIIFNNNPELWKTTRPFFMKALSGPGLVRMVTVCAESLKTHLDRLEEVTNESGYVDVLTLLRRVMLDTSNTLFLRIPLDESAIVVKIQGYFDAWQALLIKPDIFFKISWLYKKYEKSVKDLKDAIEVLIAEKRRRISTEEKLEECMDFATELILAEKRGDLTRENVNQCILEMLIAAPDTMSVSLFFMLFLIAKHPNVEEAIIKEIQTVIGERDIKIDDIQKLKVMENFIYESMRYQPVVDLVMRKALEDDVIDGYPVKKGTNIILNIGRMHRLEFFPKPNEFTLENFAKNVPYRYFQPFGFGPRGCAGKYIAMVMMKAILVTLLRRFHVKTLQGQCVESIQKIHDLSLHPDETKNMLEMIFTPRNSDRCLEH

aromatase = biological target: T2, aromatase (Homo sapiens, UniProt P11511); conditions: human ovarian tumor cells (KGN); cited from earlier work
T2 construct: endogenous in cells; host or cells: KGN human ovarian tumor cells
T2 sequence (P11511 1-503): T1 sequence (P11511 1-503)

[2] = cited from earlier work
ER = conditions: cited from earlier work
[3] = in vivo; cited from earlier work
estrogen receptor = conditions: cited from earlier work
esterase = conditions: in vitro; cited from earlier work
H295R cells [4] = experiment: Chemical exposure, steroid production in unaltered H295R cells; type: cell-based, human; conditions: 48 h
Protocol: (§1) For instrumental detection of steroids, culture medium samples were extracted by ethyl acetate/hexane (v/v, 50/50) followed by LC-MS/MS analysis. […] C-d4 was provided by Cambridge (Andover, Mass., USA), other labelled standards were provided by C/D/N Isotope (Pointe-Claire, Quebec, Canada). Test chemicals (e.g. test substances) were obtained from Sigma. […] For all other hormones, chromatography was performed using a nano-pure water and methanol. Sample extract was separated by a 100 mm×2.1 mm Thermo Scientific Betasil C18 column (5 μm pore size) and then analyzed by a triple quadrapole tandem mass spectrometer (Waters, USA). All data were acquired and processed with Analyst Software, Ver. 1.4.1 (ABI-Sciex).
(§2) Cells were exposed to model chemicals in 24-well cell culture plates (COSTAR, Bucks, UK). One ml of cell suspension was added to each well and cells cultured for 24 to 48 h. Cells were exposed to chemicals dissolved in dimethyl sulfoxide (DMSO; Sigma-Aldrich, St. Louis, Mo.). Forskolin (FOR) was obtained from Sigma Chemical Co. (St. Louis, Mo., USA) and Prochloraz (PRO) was purchased from Aldrich (St. Louis, Mo., USA). The culture medium was collected from each well after 48 h and stored at −80° C. until further measurement.

H295R/CYP21A2-KD cells = experiment: Chemical exposure, steroid production in H295R/CYP21A2-KD cells; type: cell-based, human
Protocol: as §1, §2

[5] = test system: female rat primary granulosa cells; conditions: cited from earlier work

| Compound | Effect type: estradiol (E2) production (H295R cells [1]) | Effect type: testosterone (T) production (H295R cells [1]) | further results |
| --- | --- | --- | --- |
| CCC1(c2ccc(N)cc2)CCC(=O)NC1=O (stereo not drawn) [Aminoglutethimide] | Medium to weak inhibitor of T and E2 | Medium to weak inhibitor of T and E2 |  |
| CCNc1nc(Cl)nc(NC(C)C)n1 [Atrazine] | Weak inducer of E2 production. |  | Effect on aromatase (CYP19) activity in vitro (aromatase (CYP19)): Aromatase inducer in vitro |
| CCCCNC(=O)n1c(NC(=O)OC)nc2ccccc21 [Benomyl] | inducer or negative for E2 production. | Weak inhibitor of T production; Weak | Effect on aromatase (CYP19) activity in vitro (aromatase (CYP19)): Aromatase inducer in vitro; Effect on aromatase activity (aromatase): Has been shown to induce aromatase |
| CC(C)(c1ccc(O)cc1)c1ccc(O)cc1 [Bisphenol A] | inducer | inhibitor | Effect on progesterone (synthesis) in vitro [2]: Some evidence that alters; ER binding in vitro (ER): estradiol. Tested positive for ER; Uterrotrophic assay result [3]: estradiol. Tested positive for ER |
| C#C[C@]1(O)CC[C@H]2[C@@H]3CCC4=Cc5oncc5C[C@]4(C)[C@H]3CC[C@@]21C [Danazol] | medium to strong inhibitor of estradiol. | Negative for effects on testosterone; |  |
| CCCCC(CC)COC(=O)c1ccccc1C(=O)OCC(CC)CCCC (stereo not drawn) [Di (2-ethylhexyl) phthalate (DEHP), Di (2-ethylhexyl) phthalate] | inducer of estradiol in H295R cells. |  |  |
| CNC(=O)CSP(=S)(OC)OC [Dimethoate] | increases testosterone and estradiol | increases testosterone and estradiol | Effect on progesterone (synthesis) in vitro [2]: Has been shown to decrease; Effect on aromatase (CYP19) activity in vitro (aromatase (CYP19)): not affect aromatase activity in vitro; |
| OC(c1ccc(Cl)cc1)(c1cncnc1)c1ccccc1Cl (stereo not drawn) [Fenarimol] | not as unequivocal; weak inhibitor of |  |  |
| CC(C)(C)NC(=O)[C@H]1CC[C@H]2[C@@H]3CC[C@H]4NC(=O)C=C[C@]4(C)[C@H]3CC[C@]12C [Finasteride] | negative for effects on estradiol. | Weak inhibitor of testosterone; |  |
| O=c1c(-c2ccc(O)cc2)coc2cc(O)cc(O)c12 [Genistein] | Medium inducer of E2 and weak | inhibitor of T production. Weak | Estrogen receptor agonism (estrogen receptor): estrogen receptor agonist |
| CC(=O)N1CCN(c2ccc(OCC3COC(Cn4ccnc4)(c4ccc(Cl)cc4Cl)O3)cc2)CC1 (stereo not drawn) [Ketoconazole] | Medium to weak inhibitor of E2 | Strong inhibitor of T production; | Effect type: progesterone production (H295R cells [1]): production; Induces progesterone |
| N#Cc1ccc(C(c2ccc(C#N)cc2)n2cncn2)cc1 [Letrozole] | Strong inhibitor of E2 production. | Weak inhibitor of T production. |  |
| CCSC(=O)N1CCCCCC1 [Molinate] |  | negative/weak inhibitor of T | Inhibition of esterase activity (esterase): vitro, molinate is a poor |
| CCCCOC(=O)c1ccc(O)cc1 [Paraben (Butyl paraben), Butyl paraben] | Weak inducer of E2, and weak | inhibitor of T production. |  |
| CCCN(CCOc1c(Cl)cc(Cl)cc1Cl)C(=O)n1ccnc1 [Prochloraz] | Strong inhibitor of T and E2 | Strong inhibitor of T and E2 | Effect on production of E1 (H295R cells [4]): inhibited; Effect on production of E2 (H295R cells [4]): inhibited; Effect on production of T (H295R cells [4]): inhibited; Effect on progesterone production (H295R cells [4]; 0.1 μM to 10 μM, dose-dependent): increased; Effect on progesterone production (H295R/CYP21A2-KD cells): increased; Effect on production of E1 (H295R/CYP21A2-KD cells; H295R/CYP21A2-KD, 48 h): inhibited; Effect on production of E2 (H295R/CYP21A2-KD cells; H295R/CYP21A2-KD, 48 h): inhibited; Effect on production of T (H295R/CYP21A2-KD cells; H295R/CYP21A2-KD, 48 h): inhibited |
| COc1nc(NC(C)C)nc(NC(C)C)n1 [Prometon] | Weak inducer of E2 production; | Negative for T. |  |
| CC#C[C@]1(O)CC[C@H]2[C@@H]3CCC4=CC(=O)CCC4=C3[C@@H](c3ccc(N(C)C)cc3)C[C@@]21C [RU-486/mifepristone, mifepristone] | medium to strong inducer of estradiol. | Negative for effects on testosterone; | ER result (mode of action) (estrogen receptor): Negative for ER very |
| C[C@]12CC[C@H]3[C@@H](CC[C@@]45O[C@@H]4C(O)=C(C#N)C[C@]35C)[C@@H]1CC[C@@H]2O [Trilostane] | Strong inducer of T and E2 | Strong inducer of T and E2 |  |
| C=CC1(C)OC(=O)N(c2cc(Cl)cc(Cl)c2)C1=O (stereo not drawn) [Vinclozolin] | Weak inducer of and moderate | inhibitor of T production. |  |
| CCCCC(CC)COC(=O)c1ccccc1C(=O)O (stereo not drawn) [monoethylhexyl phthalate (MEHP), monoethylhexyl phthalate] |  |  | Effect on estradiol production [5]: (MEHP) has been shown to suppress |
| Nonoxynol-9 | Negative for effects on testosterone | Negative for effects on testosterone |  |
